Test systems include NCI/ADR-RES ovarian; OVCAR-5 ovarian; SK-MEL-28 melanoma; MCF7 breast; MDA-N; T-47D breast; U251 CNS; HCC-2998 colon; DLD-1 colon; M19-MEL melanoma; HOP-18 NSCLC.
Holding throughout (experiment): DTP human tumour cell line panel, 48 h

Each structure is given as a SMILES string.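 Compound exposure: 48 hours, 5 concentrations, 96-well plates. At the TGI there is no net growth.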

Broadly, the TGI is the concentration giving total growth inhibition. Read a high TGI as lower sensitivity of the cells. Take `O=C1c2cccc(O)c2C(=O)c2c(OC3OC(CO)C(O)C(O)C3O)cccc21` (centres undefined): the TGI with NCI/ADR-RES ovarian is 68.4 µM; in the assay on OVCAR-5 ovarian, > 100 µM; in the assay on SK-MEL-28 melanoma it was > 100 µM; in the assay on MCF7 breast, > 100 µM; in the assay on MDA-N, > 100 µM; in the assay on T-47D breast, 49.1 µM. Also, the TGI is > 100 µM in the assay on U251 CNS and 59.6 µM in the assay with HCC-2998 colon.

As for `C=CC(=O)N1C/C(=C\c2ccc(Cl)cc2)C(=O)/C(=C/c2ccc(Cl)cc2)C1`, the total growth inhibition concentration (TGI) with NCI/ADR-RES ovarian worked out at 9.41 µM; with OVCAR-5 ovarian, 2.1 µM; with SK-MEL-28 melanoma, 1.6 µM; with MCF7 breast, 0.845 µM; in the assay with MDA-N it was 0.515 µM; with T-47D breast, 6.85 µM. Besides, the TGI in the assay on U251 CNS amounted to 0.983 µM; with HCC-2998 colon it was 0.739 µM.

`O=C(/C=C/c1ccc2c(c1)OCO2)Cc1nc2ccccc2[nH]c1=O`: the TGI was > 100 µM in the assay on NCI/ADR-RES ovarian; > 100 µM with OVCAR-5 ovarian; 61.5 µM in the assay with SK-MEL-28 melanoma; > 100 µM in the assay on MCF7 breast; > 100 µM in the assay on MDA-N; 34.2 µM in the assay on T-47D breast. Also, the TGI in the assay on U251 CNS came out at 34.2 µM; in the assay on HCC-2998 colon, 86.8 µM.

Regarding `CCN(CC)CCO/N=C1\CC[C@H]2[C@@H]3CCc4cc(OC)ccc4[C@H]3CC[C@]12C`, the TGI in the assay on NCI/ADR-RES ovarian stood at 23.9 µM; in the assay with OVCAR-5 ovarian it was 12.4 µM; in the assay with SK-MEL-28 melanoma, 1.28 µM; with MCF7 breast it was 9.49 µM; in the assay on MDA-N it was 3.66 µM; in the assay with T-47D breast, 7.13 µM. The TGI in the assay on U251 CNS was 11.6 µM; in the assay with HCC-2998 colon, 3.33 µM.

Turning to `CC1(C)OC2COC3([C@@H]4OC(C)(C)O[C@@H]4CO)OC(C)(C)OC3C2O1` (some centres undefined), the TGI in the assay on NCI/ADR-RES ovarian, in the assay with OVCAR-5 ovarian, in the assay with SK-MEL-28 melanoma, in the assay with MCF7 breast, in the assay on MDA-N and in the assay on T-47D breast was > 100 µM each time. Moreover, the TGI in the assay on U251 CNS and in the assay on HCC-2998 colon was > 100 µM in each case.

As to `CCN(CCCl)c1cc(CN(C)C)cc(NC(=O)c2ccc(C(=O)Nc3cccc(CN(C)C)c3)cc2)c1`, the total growth inhibition concentration (TGI) in the assay on NCI/ADR-RES ovarian is > 100 µM; in the assay with OVCAR-5 ovarian, 93.2 µM; with SK-MEL-28 melanoma, 5.2 µM; in the assay on MCF7 breast, 1 µM; in the assay on MDA-N it was 0.685 µM; in the assay on T-47D breast, 10.1 µM. Further, the TGI in the assay on U251 CNS was 0.667 µM; with HCC-2998 colon, 3.05 µM.

Consider `CCOC(=O)C1CCC(=O)N1C(=O)c1ccccc1Cl` (centres undefined), for which the total growth inhibition concentration (TGI) in the assay on NCI/ADR-RES ovarian, with OVCAR-5 ovarian, with SK-MEL-28 melanoma, with MCF7 breast, with MDA-N and in the assay on T-47D breast was > 100 µM in each case. Also, the TGI in the assay on U251 CNS and in the assay with HCC-2998 colon was > 100 µM throughout.

For the compound `COc1ccc(/C=N/n2c(C)nc3c(sc(=S)n3-c3ccccc3)c2=O)cc1`, the concentration for total growth inhibition (TGI) with DLD-1 colon, in the assay with OVCAR-5 ovarian, with SK-MEL-28 melanoma, with U251 CNS, in the assay with M19-MEL melanoma and in the assay with HCC-2998 colon was > 100 µM in each case. In the assay on HOP-18 NSCLC, the TGI was > 100 µM.

`CCOC(=O)c1ccc(Nc2nc3ccc(C(F)(F)F)cc3nc2C(=O)OCC)cc1`: the TGI in the assay on NCI/ADR-RES ovarian, in the assay with OVCAR-5 ovarian, in the assay on SK-MEL-28 melanoma, with MCF7 breast, in the assay on MDA-N and in the assay with T-47D breast was > 100 µM throughout. Also, the TGI with U251 CNS and in the assay on HCC-2998 colon was > 100 µM throughout.

As to `CN(C)CCCNC(=O)c1c(O)c2ccccc2n(C)c1=O`, the TGI with NCI/ADR-RES ovarian, with OVCAR-5 ovarian, with SK-MEL-28 melanoma, with MCF7 breast, in the assay with MDA-N and with T-47D breast was > 100 µM throughout. For the same compound, the TGI in the assay on U251 CNS and with HCC-2998 colon was > 100 µM in each case.

`COc1cc2[nH]c(-c3ccccc3)cc(=O)c2c(OC)c1OC`: the concentration for total growth inhibition (TGI) with NCI/ADR-RES ovarian, in the assay with OVCAR-5 ovarian, in the assay with SK-MEL-28 melanoma, in the assay with MCF7 breast, in the assay with MDA-N and with T-47D breast was > 100 µM in each case. Besides, the TGI with U251 CNS and in the assay on HCC-2998 colon was > 100 µM in each case.

Consider `Clc1ccc(/C(=C\c2ccccc2)Cn2ccnc2)cc1`, for which the TGI with NCI/ADR-RES ovarian is 38 µM; in the assay on OVCAR-5 ovarian, 63 µM; in the assay on SK-MEL-28 melanoma it was 38.1 µM; in the assay on MCF7 breast, 44.5 µM; in the assay on MDA-N, 39 µM; in the assay on T-47D breast, 69.9 µM. Also, the TGI in the assay with U251 CNS worked out at 31.2 µM; with HCC-2998 colon, 48.8 µM.

For `CCOP(=O)(OCC)OC1CC(n2cc(C)c(=O)n(C)c2=O)OC1CO[Si](C)(C)C(C)(C)C` (centres undefined), the TGI with NCI/ADR-RES ovarian, in the assay on OVCAR-5 ovarian, in the assay with SK-MEL-28 melanoma, in the assay with MCF7 breast, in the assay with MDA-N and in the assay with T-47D breast was > 100 µM in each case. For the same compound, the TGI with U251 CNS and in the assay on HCC-2998 colon was > 100 µM each time.

Regarding `COC1C(O)C(O[C@H]2CC[C@@]3(C)C(CC[C@@H]4[C@@H]3CC[C@]3(C)[C@@H](C(C)OC5OC(CO)C(O)C(O)C5O)CC[C@]43O)C2)OC(C)C1OC1OC(CO)C(O)C(O)C1O` (some centres undefined), the TGI with NCI/ADR-RES ovarian, in the assay with OVCAR-5 ovarian, in the assay with SK-MEL-28 melanoma, in the assay on MCF7 breast, with MDA-N and in the assay on T-47D breast was > 100 µM in each case. The TGI with U251 CNS and in the assay on HCC-2998 colon was > 100 µM each time.

Take `CC(C)[Si](OC/C(=C/COC(C)(C)C)[C@H]1CC=C(C(=O)c2ccccc2N2CN(C)C(=O)N(C)C2)C1)(C(C)C)C(C)C`: the TGI was found to be 32.7 µM with NCI/ADR-RES ovarian; 28.7 µM in the assay on OVCAR-5 ovarian; 12.9 µM in the assay on SK-MEL-28 melanoma; 15.1 µM in the assay with MCF7 breast; 4.62 µM in the assay on MDA-N; 23.6 µM with T-47D breast. Besides, the concentration for total growth inhibition (TGI) was 23 µM with U251 CNS and 31 µM with HCC-2998 colon.

The record behind these values is PubChem BioAssay (NCI).
